In ChEMBL document CHEMBL1201862, “PubChem BioAssay data set” (2004):
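Tested at 5 concentrations; 48 h exposure; 96-well plates; endpoints linearly interpolated, else capped at highest concentration. GI50 is the concentration that inhibits growth by half.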 The source made the active and inactive calls. Cut-off read from the data, not from the text of the source: active = GI50 up to about 1.1 µM and inactive = higher.

Columns and labels:
Assay in all cases: NCI tumour cell line growth inhibition, 48 h
[1] = test system: A498
[2] = test system: CAKI-1
[3] = test system: EKVX
[4] = test system: HCT-116
[5] = test system: HOP-92
[6] = test system: KM12
[7] = test system: M14
[8] = test system: MDA-MB-231
[9] = test system: MDA-N
[10] = test system: MOLT-4
[11] = test system: Malme-3M
[12] = test system: OVCAR-4
[13] = test system: OVCAR-5
[14] = test system: RPMI-8226
[15] = test system: SF-295
[16] = test system: SK-MEL-2
[17] = test system: SNB-19
[18] = test system: UACC-257
[19] = test system: LOX IMVI
[20] = test system: MCF7

Measured: GI50

CO[C@](C(=O)OC[C@H]1[C@@H](COC(C)=O)[C@@H]2O[C@H]1c1cc3c(cc12)OCO3)(c1ccccc1)C(F)(F)F
inactive: [1] 28.5 µM | [2] 32.8 µM | [3] 27 µM | [4] 13.6 µM | [5] 34 µM | [6] 14.2 µM | [7] 35.9 µM | [8] 30.8 µM | [9] 38.3 µM | [10] 19.4 µM | [11] > 100 µM | [12] 40.4 µM | [13] 30.9 µM | [14] 3.68 µM | [15] 18 µM | [16] 28.6 µM | [17] 50.4 µM | [18] 40.5 µM

CC(=O)Oc1c(OC(C)=O)c(-c2ccc(O)c(O)c2)c(O)c(O)c1-c1ccc(O)cc1
inactive: [1] > 100 µM | [2] > 100 µM | [3] > 100 µM | [4] > 100 µM | [5] 30.2 µM | [6] > 100 µM | [19] 29.9 µM | [20] > 100 µM | [10] > 100 µM | [12] > 100 µM | [13] > 100 µM | [14] > 100 µM | [15] > 100 µM | [16] 29.4 µM | [17] > 100 µM | [18] > 100 µM

COc1cccc(NC(=O)C(=O)C(C(=O)c2ccccc2F)C2OC(=O)c3ccccc32)c1 (centres undefined)
inactive: [1] 72.6 µM | [2] 52.5 µM | [3] 41.8 µM | [4] 20 µM | [5] > 100 µM | [6] 45.8 µM | [19] 29.9 µM | [7] 48 µM | [10] 25.4 µM | [12] 36.4 µM | [13] 59 µM | [14] 21.6 µM | [15] 37.7 µM | [16] 22.5 µM | [17] 24.9 µM | [18] > 100 µM

CCOC(=O)CCn1[nH]c(=O)c(Cl)c(Cl)c1=O
inactive: [1] > 100 µM | [2] > 100 µM | [3] > 100 µM | [4] > 100 µM | [5] > 100 µM | [19] > 100 µM | [7] > 100 µM | [11] > 100 µM | [12] > 100 µM | [13] > 100 µM | [15] > 100 µM | [16] > 100 µM | [17] > 100 µM | [18] > 100 µM

O=C1NC(O)c2cc3ccccc3cc2O1 (centres undefined)
inactive: [3] > 100 µM | [4] 20 µM | [5] 25.6 µM | [6] > 100 µM | [19] 46.6 µM | [7] 38.6 µM | [20] 29.6 µM | [8] 34.4 µM | [10] 30.5 µM | [11] 59.7 µM | [12] 76 µM | [13] > 100 µM | [14] 38.5 µM | [15] > 100 µM | [17] 60 µM | [18] 61.1 µM

COc1c2ccoc2c(S(=O)(=O)Nc2ccc(Cl)cc2)c2oc(C)cc(=O)c12
inactive: [1] 54.6 µM | [2] > 34.9 µM | [3] > 100 µM | [4] 36 µM | [5] 41.9 µM | [6] > 100 µM | [19] > 100 µM | [20] 51.9 µM | [10] > 100 µM | [11] 96.6 µM | [12] 32.5 µM | [13] > 100 µM | [14] > 100 µM | [15] > 89.7 µM | [16] > 76.2 µM | [17] 99.1 µM | [18] > 100 µM

CCN(CC)CCCNC(=O)c1ccccc1Nc1c(Cl)cccc1Cl
inactive: [3] 11.1 µM | [4] 11.5 µM | [19] 8.55 µM | [7] 2.64 µM | [10] 11.8 µM | [12] 7.31 µM | [13] 11.7 µM | [14] 5.68 µM | [17] 15.6 µM | [18] 3.03 µM

O=C(O)CCCCCCC[C@@H]1S[C@H]1CCCCCCO
inactive: [1] > 60.7 µM | [2] > 100 µM | [3] > 100 µM | [4] > 100 µM | [5] 33.8 µM | [6] > 100 µM | [19] > 100 µM | [20] > 100 µM | [10] > 100 µM | [11] > 100 µM | [12] > 100 µM | [13] > 100 µM | [14] > 100 µM | [15] > 100 µM | [16] > 100 µM | [17] > 100 µM | [18] > 100 µM

CC(C)CC/N=c1/cc2n(-c3ccc(Cl)cc3)c3ccccc3nc-2cc1Nc1ccc(Cl)cc1
inactive: [1] 15 µM | [2] 10.4 µM | [3] 6.12 µM | [4] 3.77 µM | [5] 4.92 µM | [6] 4.3 µM | [19] 2.89 µM | [20] 5.36 µM | [10] 2.16 µM | [11] 11.9 µM | [12] 2.65 µM | [13] 12.4 µM | [14] 2.22 µM | [15] 11.9 µM | [16] 3.96 µM | [17] 32.3 µM | [18] 7.6 µM

Nc1nc(N)nc(-c2ccccc2NS(=O)(=O)c2ccc([N+](=O)[O-])cc2)n1
inactive: [1] > 100 µM | [3] > 100 µM | [4] 67.5 µM | [5] > 100 µM | [6] 84.9 µM | [19] 38.2 µM | [20] > 81.5 µM | [10] > 54.5 µM | [11] > 100 µM | [12] 44.2 µM | [13] > 100 µM | [14] 45.9 µM | [15] 99.1 µM | [16] 81.5 µM | [17] > 100 µM | [18] 43 µM

CCOC(=O)C(C)OC(=O)c1ccc(C)cc1 (centres undefined)
inactive: [1] > 100 µM | [3] > 100 µM | [4] > 100 µM | [5] > 100 µM | [6] > 100 µM | [19] > 100 µM | [7] > 100 µM | [10] > 100 µM | [11] > 100 µM | [13] > 100 µM | [15] > 10 µM | [16] > 100 µM | [17] > 100 µM | [18] > 100 µM

CS(=O)(=O)c1ccc2nc(-c3ccc(O)cc3)sc2c1
inactive: [1] 16.4 µM | [2] 17.6 µM | [3] 10.5 µM | [4] 16.8 µM | [6] 16 µM | [19] 22.1 µM | [7] 21.6 µM | [20] 17.5 µM | [8] 20.6 µM | [9] 17.7 µM | [10] 35.6 µM | [11] 16.7 µM | [13] 17.7 µM | [14] 15.7 µM | [15] 16.7 µM | [16] 20 µM | [17] 17.4 µM | [18] 19.6 µM
